These results are taken from PubChem BioAssay (NCI).

Assay in all cases: inhibition of tumour cell growth, NCI panel, 48 h
For test [1], the system named is NCI-H460 lung.
Test [2] relates to SF-268 CNS.
Test [3] deals with UACC-62 melanoma.
For test [4], the system named is MCF7 breast.
For test [5], the system named is NCI-H23 lung.
In test [6] the test system is SK-MEL-5 melanoma.
The test system of test [7] is MOLT-4 leukemia.
Test [8] relates to SR leukemia.
The subject of test [9] is LOX IMVI melanoma.

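Results reflect a 48-hour exposure of cells in 96-well plates to compound at five concentrations. The concentration for 50% growth inhibition is given as GI50. Definition used: TGI = concentration required for complete inhibition of growth.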

For `Cn1ncc2c(Cl)ncnc21`, the TGI in test [1], in test [2], in test [3], in test [4], in test [5] and in test [6] was greater than 100 µM in each case. Besides, the TGI in test [7], in test [8] and in test [9] was greater than 100 µM in each case.

Consider `Cc1nc(C)c(N2CCNCC2)c(=O)[nH]1`, for which the TGI in test [1], in test [2], in test [3], in [4], in test [5] and in test [6] was greater than 100 µM each time. Besides, the TGI in test [7], in [8] and in test [9] was greater than 100 µM in each case.

`Cc1ccc(C2=C(C#N)C(N)OC3=C2COc2ccccc23)cc1` (stereo not given): the TGI in test [1] was greater than 100 µM; in [2], 85.9 µM; in test [3], greater than 100 µM; in [4], greater than 100 µM; in [5] it was greater than 100 µM; in [6], greater than 100 µM. Besides, the TGI in test [7], in test [8] and in test [9] was greater than 100 µM throughout.

Turning to `Cc1ccc(-c2nc(N/N=C/c3ccc(O)cc3)c3ccccc3n2)cc1`, the TGI was 50.1 µM in [1]; greater than 100 µM in [2]; 26.4 µM in [3]; 26.2 µM in test [4]; 33.8 µM in test [5]; 15.4 µM in test [6]. Besides, the TGI is greater than 100 µM in [7], greater than 100 µM in test [8] and 36.2 µM in test [9].

Regarding `Cc1n[nH]c(=O)n1/N=C\c1ccccc1`, the TGI in test [1], in [2], in test [3], in test [4], in [5] and in test [6] was greater than 100 µM throughout. Moreover, the TGI in test [7], in test [8] and in [9] was greater than 100 µM each time.

In the case of `CC(=O)Nc1ccc2[nH]c(C(=O)N3CC(CCl)c4c3cc([N+](=O)[O-])c3ccccc43)cc2c1` (stereo not given), the TGI in [1] was greater than 100 µM; in test [2], greater than 57.1 µM; in test [3] it was greater than 31.6 µM; in [4], greater than 100 µM; in test [5], greater than 100 µM; in [6], greater than 100 µM. Besides, the TGI in [7] is greater than 67.6 µM; in [8], 5.83 µM; in [9], greater than 100 µM.

On to `O=C(N=c1ccc2nc(=O)[nH]n(O)c-2c1)C(F)(F)F`, for which the TGI in test [1], in test [2], in test [3], in test [4], in test [5] and in [6] was greater than 100 µM each time. The TGI in test [7], in test [8] and in test [9] was greater than 100 µM throughout.

In the case of `O=C(N/N=C\c1ccc(N(CCCl)CCCl)cc1[N+](=O)[O-])c1cccnc1`, the GI50 in [1], in test [2], in test [3], in [4], in test [5] and in test [6] was greater than 100 µM throughout. Besides, the GI50 in test [7], in [8] and in test [9] was greater than 100 µM in each case. Besides, the TGI in test [1], in test [2], in test [3], in test [4], in [5] and in test [6] was greater than 100 µM in each case. Further, the TGI in [7], in [8] and in [9] was greater than 100 µM each time.

With `O=C(/C=C/c1cccc(Oc2ccccc2)c1)NCc1ccc(C(=O)NCCc2ccccc2)cc1`, the TGI in [1], in [2], in test [3], in test [4], in [5] and in test [6] was greater than 100 µM each time. Moreover, the TGI in test [7], in test [8] and in test [9] was greater than 100 µM in each case.

For `COC(=O)c1ccc(C)cc1CC1Cc2ccc(C)cc2C1=O` (stereo not given), the TGI in test [1] was 31.3 µM; in test [2], 61.7 µM; in [3] it was 51.4 µM; in test [4] it was 19.9 µM; in [5], 74.7 µM; in test [6], 19.6 µM. The TGI came out at 26.4 µM in test [7], 8.68 µM in test [8] and 14.8 µM in test [9].

`CCOC(=O)C(NC(=O)c1ccccc1)(N1CCN(c2cc3c(cc2F)c(=O)c(C(=O)O)cn3CC)CC1)C(F)(F)F` (stereo not given): the TGI in [1] is greater than 100 µM; in [2], greater than 100 µM; in test [3] it was greater than 100 µM; in test [4], 69.2 µM; in test [5] it was greater than 100 µM; in [6] it was 65.7 µM. For the same molecule, the TGI in test [7] is 54.2 µM; in test [8], 62.5 µM; in [9] it was 35.4 µM.

`COc1cc2c(c(O)c1OC)CC1CCC(=O)N1C2c1cccc2ccccc12` (stereo not given): the TGI in test [1] was 61.1 µM; in test [2], 78.7 µM; in test [3], 30.9 µM; in [4] it was greater than 100 µM; in test [5], 67.6 µM; in test [6], 26.2 µM. Besides, the TGI was greater than 100 µM in test [7], greater than 100 µM in [8] and 52.4 µM in test [9].

In the case of `CC(=O)NC(C)(C)C1CCC(C)=C(c2ccccc2)C1` (stereo not given), the TGI in test [1], in test [2], in test [3], in test [4], in test [5] and in test [6] was greater than 100 µM throughout. Also, the TGI in [7], in test [8] and in test [9] was greater than 100 µM each time.

Regarding `CC(C)=CCc1[nH]c2ccccc2c1C1=C(O)C(=O)C(c2c(CC=C(C)C)[nH]c3ccccc23)=C(O)C1=O`, the TGI in [1] was found to be 3.87 µM; in test [2] it was 7.11 µM; in test [3] it was 2.94 µM; in test [4], 9.4 µM; in test [5], 5.87 µM; in test [6], 4.12 µM. The TGI in test [7] amounted to 15.4 µM; in [8], 4.44 µM; in test [9], 4.22 µM.
